Where two headings read alike, the source gives them in different places.
How the values were obtained:
BVDV = details: read-out: EC50 (anti-BVDV); cited from earlier work
RSV = details: read-out: EC50 (anti-RSV), cited from earlier work
[1] = test system: HSV-1 (Herpes Simplex virus, Type-1); format: cell-based
[2] = Cytotoxicity on host cells, mean over the host cell lines; details: human, bovine, hamster, monkey

Compound: 3-[(dipropylaminoethyl)thio]-5H-1,2,4-triazino[5,6-b]indole [VP32947]
- EC50 (BVDV): 0.03 to 0.04 µM

Compound: O=c1n(Cc2nc3ccccc3n2CCCCO)c2cnccc2n1C1CC1 [BMS-433771]
- EC50 (RSV; fusion inhibitor): 0.021 µM

Compound: Brc1ccc(Cn2ccc3nc(-c4ccccc4)nc-3c2)cc1 [BPIP, 5-[4-bromobenzyl]-2-phenyl-5H-imidazo[4,5-c]pyridine]
- EC50 (BVDV): 0.03 to 0.04 µM

Compound: CN(C)CCCNc1ccc(/N=N/c2cccc([N+](=O)[O-])c2)cc1.Cl [Compound 2, N,N-Dimethyl-N′-[4-(3-nitrophenylazo)phenyl]propane-1,3-diamine]
- S. I. (selectivity index), HSV-1 [1]: 4.2

Compound: Fc1ccc(/N=N/c2ccc(NC[C@@H]3CCCN4CCCC[C@H]34)c3c2CCCC3)c(F)c1 [Compound 12]
- CC50 [2]: 21.5 µM

Compound: CN(C)CCCN(/N=N/c1cc(F)ccc1F)c1ccccc1 [Compound 29, 1-[1-(2,5-Difluorophenyl)-3-phenyltriazen-3-yl]-N,N-dimethyl-3-propanamine]
- CC50 [2]: 17.5 µM

Compound: O=C(Nc1ccccc1F)N[C@H]1N=C(c2ccccc2)c2ccccc2NC1=O [RSV-604]
- EC50 (RSV; S-enantiomer): 0.9 µM
